Laboratory results taken from patent publication US8101583B2, “1,4-benzothiepin-1,1-dioxide derivatives which are substituted with fluorine, method for producing the same, drugs containing said compounds and use thereof” (Sanofi-Aventis Deutschland GmbH, priority 2006, dated 2012).

Biological target: T1, human IBAT (Homo sapiens, UniProt Q12908)
T1 construct: Bases 599 to 1645 correspond to the complete coding region of human IBAT; expressed in transfected cells
T1 sequence (Q12908 1-348): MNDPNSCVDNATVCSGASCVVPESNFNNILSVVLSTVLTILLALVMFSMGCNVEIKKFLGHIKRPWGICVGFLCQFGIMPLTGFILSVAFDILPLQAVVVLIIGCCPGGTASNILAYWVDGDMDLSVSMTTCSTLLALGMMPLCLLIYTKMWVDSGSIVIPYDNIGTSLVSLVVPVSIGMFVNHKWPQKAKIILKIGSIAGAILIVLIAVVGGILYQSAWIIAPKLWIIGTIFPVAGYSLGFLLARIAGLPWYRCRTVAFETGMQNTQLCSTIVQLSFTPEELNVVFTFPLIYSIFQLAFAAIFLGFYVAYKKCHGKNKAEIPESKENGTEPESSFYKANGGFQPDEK
Test: in vitro IBAT inhibition assay: IBAT-dependent uptake of [3H]-taurocholic acid into CHO-hIBAT cells
Format: cell-based
Settings: taurocholic acid 10 μM, 60 min at room temperature, read-out: IC-50 (human IBAT)
Text: Preparation and procedure for the in vitro IBAT inhibition assay:
1. Cloning of an Expression Vector for Human IBAT
The cDNA (complementary deoxyribonucleic acid) of human IBAT was cloned by standard methods of molecular biology as described for example in Molecular Cloning: A Laboratory Manual by Joseph Sambrook and David Russell, and introduced into the pcDNA1 vector from Invitrogen. […] Bases 599 to 1645 correspond to the complete coding region of human IBAT.
2. Preparation of a Recombinant Cell Line with Constitutive Expression of Human IBAT
The expression vector for human IBAT was introduced by stable transfection into CHO (chinese hamster ovary) cells. To select single cell clones, 400 μg/ml Geneticin was added to the cell culture medium (Ham's F12 medium supplemented with 10% fetal calf serum, 100 units/ml penicillin, 100 units/ml streptomycin). The functionality of the single cell clones resulting from the selection was assayed via their uptake activity for radiolabeled taurocholic acid ([^3H]-TCA). The cell clone with the highest uptake activity for [^3H]-TCA, referred to hereinafter as CHO-hIBAT, was selected for the further assays and further cultured in the presence of 400 μg/ml Geneticin.
3. Measurement of the Inhibitory Effect of the Compound of the Invention on the IBAT-Dependent Uptake of Taurocholic Acid into Cells
CHO-hIBAT cells were seeded in a concentration of 40 000 cells per well in poly-D-lysine-coated 96-well plates in cell culture medium and cultured for 24 h. The cells were then washed once with sodium-free transport assay buffer (140 mM choline chloride, 2 mM potassium chloride, 1 mM magnesium chloride, 1 mM calcium chloride, 10 mM HEPES/Tris, pH 7.5) and subsequently incubated either with sodium-free transport assay buffer as negative control or with sodium-containing transport assay buffer (140 mM sodium chloride, 2 mM potassium chloride, 1 mM magnesium chloride, 1 mM calcium chloride, 10 mM HEPES/Tris, pH 7.5) as positive control at room temperature for 30 min. At the same time, the assay wells were also incubated in the presence of the compound to be investigated in varying concentration in sodium-containing transport assay buffer at room temperature for 30 min. The test substances were appropriately diluted in transport assay buffer (40 μl/well) starting from a 10 mM stock solution in dimethyl sulfoxide. The assay was then started by adding 10 μl/well of a mixture of radiolabeled taurocholic acid ([^3H]-TCA) and unlabeled taurocholic acid. The final concentration of taurocholic acid in the assay was 10 μM. After an incubation time of 60 min at room temperature, the reaction was stopped by adding 100 μl/well sodium-free transport assay buffer (4° C.), and each well was washed three times with sodium-free transport assay buffer. Finally, 100 μl of scintillation fluid were added to each well, and the radioactivity taken up into the cells was determined in a MicroBeta Scintillation Microplate Reader from Wallac.
The half-maximum inhibitory effect of the test compound (IC50 value, inhibitory concentration 50) was determined in the following way: • 1. Determination of the value for 0% inhibition. This is the measurement in the absence of substance, measured in sodium-containing transport assay buffer. • 2. Determination of the value for 100% inhibition. This is the measurement in the absence of substance, measured in sodium-free transport assay buffer. • 3. […]

CCCC[C@]1(CC)CS(=O)(=O)c2ccc(N(C)C)cc2[C@@H](c2cccc(NC(=O)N[C@@H]3O[C@H](CO)[C@@H](F)[C@H](O)[C@H]3O)c2)[C@H]1O [Example 1]
IC50: 6.5 nM

CCCC[C@]1(CC)CS(=O)(=O)c2ccc(N(C)C)cc2[C@@H](c2cccc(NC(=O)N[C@@H]3O[C@H](COS(=O)(=O)O)[C@@H](F)[C@H](O)[C@H]3O)c2)[C@H]1O [Example 2]
IC50: 3.9 nM

CCCC[C@]1(CC)CS(=O)(=O)c2ccc(N(C)C)cc2[C@@H](c2cccc(NC(=O)N[C@@H]3O[C@H](CO)C(F)(F)[C@H](O)[C@H]3O)c2)[C@H]1O [Example 3]
IC50: 5.3 nM

CCCC[C@]1(CC)CS(=O)(=O)c2ccc(N(C)C)cc2[C@@H](c2cccc(NC(=O)N[C@@H]3O[C@H](COS(=O)(=O)O)C(F)(F)[C@H](O)[C@H]3O)c2)[C@H]1O [Example 4]
IC50: 3.6 nM

CCCC[C@]1(CC)CS(=O)(=O)c2ccc(N(C)C)cc2[C@@H](c2cccc(NC(=O)N[C@@H]3O[C@H](CS(=O)(=O)O)[C@@H](F)[C@H](O)[C@H]3O)c2)[C@H]1O [Example 5]
IC50: 5.6 nM
